Patent US12545665B2, “Crystal form of 6-(cyclopropanecarboxamido)-4-((2-methoxy-3-(1-methyl-1H-1,2,4-triazol-3-yl)phenyl)amino)-n-(methyl-d3) pyridazine-3-carboxamide” (Bristol-Myers Squibb Company, priority 2017, dated 2026)

Tests used:
Type in all cases: physicochemical
[1] = Chemical stability (% Assay) of micronized Form A stored at different temperature and humidity conditions
Procedure: Samples of micronized Form A of Compound (I) were stored at different conditions of temperature and humidity for 4 weeks. The physical stability, characterized by DSC, TGA, and PXRD, were measured at 2 and 4 weeks.

[2] = Physical stability on storage, characterized by DSC, TGA and PXRD; details: samples stored for 4 weeks at different conditions of temperature and humidity, TGA, PXRD
Procedure: X-ray powder diffraction (PXRD) data were obtained using a Bruker C2 GADDS with Vantec-500 detector. The radiation was Cu Kα (40 KV, 40 mA). The sample-detector distance was […]. Incident optics include Goebel mirror and 0.3 mm collimator. Powder samples were placed in sealed glass capillaries of 1 mm or less in diameter; the capillary was rotated during data collection. Data were collected for 2≤2θ≤35° with a sample exposure time of at least 1000 seconds. The resulting two-dimensional diffraction arcs were integrated to create a traditional 1-dimensional PXRD pattern with a step size of 0.05 degrees 2θ in the range of ˜2 to ˜30 degrees 2θ.
Differential scanning calorimetry (DSC) experiments were performed in a TA Instruments™ model Q2000. The sample (about 2-6 mg) was weighed in an aluminum pan and recorded accurately recorded to a hundredth of a milligram, and transferred to the DSC. […] Data were collected between room temperature and 300° C. at 10° C./min heating rate. The plot was made with the endothermic peaks pointing down.
Thermal gravimetric analysis (TGA) experiments were performed in a TA Instruments™ model Q5000. The sample (about 10-30 mg) was placed in a platinum pan previously tared. […] The furnace was purged with nitrogen gas at 100 mL/min. Data were collected between room temperature and 300° C. at 10° C./min heating rate.

[3] = Moisture-sorption isotherm (VTI)
Procedure: Form A of Compound (I) is non-hygroscopic with less than 0.1 weight % gain between 25 to 75% relative humidity at 25° C.
Moisture-sorption isotherms were collected in a TA Instrument VTI-SA+ Vapor Sorption Analyzer using approximately 10 mg of sample. The sample was dried at 60° C. until the loss rate of 0.0005 wt %/min was obtained for 10 minutes. The sample was tested at 25° C. and 3 or 4, 5, 15, 25, 35, 45, 50, 65, 75, 85, and 95% relative humidity (RH). Equilibration at each relative humidity was reached when the rate of 0.0003 wt %/min for 35 minutes was achieved or a maximum of 600 minutes.

[4] = at the tested temperature and humidity conditions

% Assay ([1]; High Intensity Light/UV, 2 weeks): 99.3% | % Assay ([1]; High Intensity Light/UV, 4 weeks): 99.2% | Impurity profiles [1, 4]: remain unchanged | Change in chemical stability ([1]; samples of Table 2, stored up to 4 weeks): no measure change in chemical stability | % Assay ([1]; stored at 5° C. (control), 2 weeks): 99.2% | % Assay ([1]; stored at 5° C. (control), 4 weeks): 99.2% | % Assay ([1]; stored at 25° C./60% relative humidity (closed), 2 weeks): 99.2% | % Assay ([1]; stored at 25° C./60% relative humidity (closed), 4 weeks): 99.2% | % Assay ([1]; stored at 40° C./75% relative humidity (open), 2 weeks): 99.2% | % Assay ([1]; stored at 40° C./75% relative humidity (open), 4 weeks): 99.2% | % Assay ([1]; stored at 50° C., 2 weeks): 99.2% | % Assay ([1]; stored at 50° C., 4 weeks): 99.2% | Weight gain ([3]; between 25 to 75% relative humidity at 25° C.): less than 0.1 weight % | Hygroscopicity ([3]; moisture sorption isotherm at 25° C.): non-hygroscopic
SMILES: [2H]C([2H])([2H])NC(=O)c1nnc(NC(=O)C2CC2)cc1Nc1cccc(-c2ncn(C)n2)c1OC [Form A of Compound (I), 6-(cyclopropanecarboxamido)-4-((2-methoxy-3-(1-methyl-1H-1,2,4-triazol-3-yl)phenyl)amino)-N-(methyl-d3)pyridazine-3-carboxamide]
Physical or chemical degradation [1, 4]: no significant physical or chemical degradation | Change in physical form [2]: No change in the physical form was detected
